The source of these data is publication PMC9861175, “Diversity and Biosynthetic Potential of Fungi Isolated from St. John’s Island, Singapore” (International Journal of Molecular Sciences, 2023).

Like-named read-outs stand apart in the source and are kept apart here. A value given as a limit tells only on which side of the number the result lay.

Data set [1] deals with C. albicans ATCC 10231. The data set is described as follows: Antifungal growth inhibition (OD) screen against C. albicans. Type of data set: cell-based. The following applies: Candida albicans, read-out: IC50 CA. Here is the method: (§1) Dried extracts were resuspended in MeOH to obtain 20 mg/mL sample concentration followed by sonication for complete solubilizing. Ten microliters (10 µL) of the extracts per well were added to 96-well plates followed by drying via centrifugal vacuum concentrator. Upon drying, 100 µL of 10% DMSO was added to each well to obtain a sample concentration of 2 mg/mL. Ten microliters (10 µL) were subsequently used for the antimicrobial bioassays where 90 µL of the respective microbial cultures were added to each sample, leading to a final extract concentration of 200 µg/mL. For preliminary screening, extracts from all 30 fungi were evaluated for antimicrobial activities using the highest concentration of 200 µg/mL.
For the C. albicans screen, a single colony from freshly streaked C. albicans on Sabouraud dextrose agar (SDA) was inoculated into 25-mL of Sabouraud liquid medium (SLM) and incubated at 35 °C with shaking at 150 rpm for 18 hrs. Subsequently, 1% of the culture (250 µL) was prepared with SLM and incubated at 35 °C with shaking for 6 h. OD600 was monitored until it reached approximately 0.8. Cell density (D) of the culture was calculated using the following equation: D = [(30 × OD600) − 8] × 10^6 CFU/mL. Final cell densities were adjusted to 2.5 × 10^5 CFU/mL and inoculated as 90 µL suspensions into 96-well plates. Similar to the antibacterial assays, upon addition of 10 µL of extracts to the cell suspensions, the plates were incubated at 37 °C for 20 h prior to OD readings. For each extract tested, three technical replicates were used. Amphotericin B was used as the antifungal standard control in C. albicans screen.

For data set [2], the system named is Escherichia coli ATCC 25922. Briefly: Antibacterial broth microdilution growth inhibition (OD600) against E. coli. Type of data set: cell-based. The following applies: read-out: IC50 EC. The procedure: as §1
(§2) For the antibacterial bioassays, the test microorganisms S. aureus, Methicillin-resistant S. aureus (MRSA) and E. coli were plated on Mueller-Hinton II agar (Merck, Germany) and incubated overnight at 37 °C. Colonies were added to a glass tube containing 0.85% saline solution until the turbidity was equivalent to 0.5 McFarland Standard (approximate cell density 1.5 × 10^8 CFU/mL). Cell suspensions were then diluted in MH2 liquid media to obtain a final cell density of 5 × 10^5 CFU/mL. Ninety microliters (90 µL) of cell suspensions were added to 10 µL of extracts in the 96-well bioassay plates and incubated at 37 °C for 20 h. For each extract tested, three replicates were used. The optical density (OD) of each well was measured using a Hidex Sense microplate reader (Hidex, Finland) at 600 nm. Percentage growth inhibition was calculated according to the following formula with the quality of the bioassay assessed based on the Z-prime analysis. A Z-prime of ≥0.7 indicates the robustness of the high throughput screening data. Gentamicin was used as the standard control against S. aureus and E. coli while vancomycin was used as the standard control in the MRSA assay.
(In general: Broth dilution looks for growth in wells or tubes with falling amounts of substance.)

Data set [3] deals with Staphylococcus aureus ATCC 25923. The data set is described as follows: Antibacterial broth microdilution growth inhibition (OD600) against S. aureus. It counts as cell-based. Particulars: for IC50: read-out: IC50 SA. The procedure: as §1, §2
Data set [4] deals with A549 human lung carcinoma cells ATCC CCL-185. Briefly: Cytotoxicity assay (PrestoBlue, 72 h) on A549 cells. It counts as cell-based. Particulars: for IC50: Homo sapiens, read-out: IC50 A549. The procedure:
The cytotoxic effect of the isolated compounds on the A549 human lung carcinoma cell line was determined as described previously. A549 cells at a concentration of 3.3 × 10^4 cells/mL in Dulbecco’s Modified Eagle Medium (DMEM, Gibco, Life Technologies, Bleiswijk, The Netherlands) were treated with isolated compounds at concentrations ranging from 0.1 μM to 200 μM and incubated for 72 h at 37 °C in 5% CO2 and 95% relative humidity. Cytotoxic effect of the compounds was measured after the addition of PrestoBlue™ cell viability reagent (Thermo Fisher Scientific, USA) and incubation for 2 h by reading of the plates’ fluorescence at an excitation wavelength of 560 nm and emission wavelength of 590 nm using the Tecan Infinite M1000 Pro reader. Puromycin served as the standard control.

Data set [5] concerns human hepatoma cell line. Particulars: cited from earlier work.
The test system of data set [6] is Methicillin-resistant Staphylococcus aureus ATCC 33591. The data set is described as follows: Antibacterial broth microdilution growth inhibition (OD600) against MRSA. It counts as cell-based. Particulars: 20 h. Here is the method:
as §1, §2

The test system of data set [7] is L5178Y mouse lymphoma cell line. The arrangement: method as in doi:10.1016/j.phytol.2014.12.010. The following applies: cited from earlier work.
The conditions of data set [8]: mycotoxins associated with food spoilage; cited from earlier work.
Where [9] appears, read: ATCC10231, isolated compounds, C. albicans ATCC 10231, 20 h.
Setting [10] is: ATCC25922, isolated compounds, E. coli ATCC 25922, 20 h, 37 °C.
Setting [11] is: Staphylococcus aureus, ATCC25923, isolated compounds, S. aureus ATCC 25923, 20 h, 37 °C.
The mark [12] stands for this setting: isolated compounds, A549 cells, 72 h.
Where [13] appears, read: Staphylococcus aureus, isolated compounds, MRSA ATCC 33591, 37 °C, read-out: IC50 MRSA.
Where [14] appears, read: Staphylococcus aureus, ATCC25923, 20 h, isolated compounds, S. aureus ATCC 25923, 20 h, 37 °C.
[15] abbreviates: Staphylococcus aureus, read-out: IC50 MRSA, isolated compounds, MRSA ATCC 33591, 37 °C.
The mark [16] stands for this setting: Staphylococcus aureus, read-out: IC50 MRSA.

A word on the IC50: it is the point on the concentration scale where inhibition reaches its midpoint. As to `C[C@@H]1[C@H](O)[C@@H](C)/C=C/C=C/C=C/C=C/C=C/C=C/C=C/[C@H](O[C@@H]2O[C@H](C)[C@@H](O)[C@H](N)[C@@H]2O)C[C@@H]2O[C@](O)(C[C@@H](O)C[C@@H](O)[C@H](O)CC[C@@H](O)C[C@@H](O)CC(=O)O[C@H]1C)C[C@H](O)[C@H]2C(=O)O` [Amphotericin B, reference compound], the IC50 in data set [1] (setting [9]) is 0.14 µM.

For the compound `CNC(C)C1CCC(N)C(OC2C(N)CC(N)C(OC3OCC(C)(O)C(NC)C3O)C2O)O1` (stereo not shown) [Gentamicin, reference compound], the IC50 in data set [2] (setting [10]) is 0.67 µM; in data set [3] (setting [11]) it was 0.22 µM.

Consider `COC(=O)c1ccccc1NC(=O)C(CC[S+](C)[O-])NC(=O)c1cnc2c(=O)n(C)c(=O)n(C)c2n1` (stereo not shown) [Penilumamide A], for which the IC50 in data set [4] (setting [12]) was 100 µM; in data set [2] (setting [10]), > 200 µM; in data set [3] (setting [11]), 88 µM; in data set [1] (setting [9]), > 200 µM; in data set [6] (setting [13]), > 200 µM. Moreover, the “cytotoxic activity against A549 cells (in words)” value in data set [4] (isolated compounds) is listed as “weak”. For the same compound, the “antimicrobial activity against S. aureus (in words)” value in data set [3] (isolated compounds) is “weak”. Also, the “cytotoxicity activity against a human hepatoma cell line” value (“cytotoxicity activity” for short) in data set [5] is listed as “weak cytotoxicity activity”.

Turning to `COC(=O)c1ccccc1NC(=O)C(CCSC)NC(=O)c1cnc2c(n1)c(=O)n(C)c(=O)n2C` (stereo not shown) [Penilumamide B], the half-inhibitory concentration (IC50) in data set [4] (setting [12]) is 113 µM; in data set [2] (setting [10]) it was > 200 µM; in data set [3] (setting [11]), > 200 µM; in data set [1] (setting [9]), > 200 µM; in data set [6] (setting [13]), > 200 µM.

In the case of `CC(NC(=O)c1cnc2c(n1)c(=O)n(C)c(=O)n2C)C(=O)Nc1ccccc1C(N)=O` (stereo not shown) [Penilumamide D], the concentration for half-maximal inhibition (IC50) in data set [4] (setting [12]), in data set [2] (setting [10]), in data set [3] (setting [11]), in data set [1] (setting [9]) and in data set [6] (setting [13]) was > 200 µM throughout. For the same compound, in data set [5], the “cytotoxicity activity” value is “weak cytotoxicity activity”.

As for `COc1ccc(C2SSC34CC5(O)C(O)C=CC(O)C5ON3C(=O)C2N(C)C4=O)c(O)c1OC` (stereo not shown) [Pretrichodermamide C], the half-maximal inhibitory concentration (IC50) is > 200 µM in data set [4] (A549, 72 h); > 200 µM in data set [2] (setting [10]); < 50 µM in data set [3] (setting [14]); 34.7 µM in data set [3] (isolated compounds, S. aureus ATCC 25923, 20 h, 37 °C); > 200 µM in data set [1] (setting [9]); < 50 µM in data set [6] (setting [15]). Besides, the half-maximal inhibitory concentration (IC50) in data set [6] (read-out: IC50 MRSA, isolated compounds, MRSA ATCC 33591, 37 °C) came to 41.6 µM. The “cytotoxic activity against A549 cells (in words)” value in data set [4] (isolated compounds) was “no cytotoxic activity”. Further, the “activity against the L5178Y mouse lymphoma cell line” value in data set [7] was “inactive”.

Consider `COc1ccc(C[C@H](N)C(=O)N[C@H]2[C@@H](O)[C@H](n3cnc4c(N(C)C)ncnc43)O[C@@H]2CO)cc1` [Puromycin, reference compound], for which the half-inhibitory concentration (IC50) in data set [4] (setting [12]) is 0.25 µM.

In the case of `CN[C@H](CC(C)C)C(=O)N[C@H]1C(=O)N[C@@H](CC(N)=O)C(=O)N[C@H]2C(=O)N[C@H]3C(=O)N[C@H](C(=O)N[C@H](C(=O)O)c4cc(O)cc(O)c4-c4cc3ccc4O)[C@H](O)c3ccc(c(Cl)c3)Oc3cc2cc(c3O[C@@H]2O[C@H](CO)[C@@H](O)[C@H](O)[C@H]2O[C@H]2C[C@](C)(N)[C@H](O)[C@H](C)O2)Oc2ccc(cc2Cl)[C@H]1O` [Vancomycin, reference compound], the IC50 in data set [6] (setting [16]) stood at 1.5 µM.

Regarding `COC1=C(c2c(OC)cc3cc4c(c(O)c3c2O)C(=O)OC(C)C4)C(=O)c2c(cc3c(c2O)C(=O)OC(C)C3)C1=O` (stereo not shown) [Viomellein], the IC50 in data set [4] (A549, 72 h) is 42 µM; in data set [2] (setting [10]), > 100 µM; in data set [3] (setting [14]) it was 3.2 µM; in data set [1] (setting [9]), 17.9 µM; in data set [6] (setting [15]) it was 2.9 µM. The “liver and kidney damage in animals” value in data set [8] is “known to cause liver and kidney damage in animals”.

In the case of `COc1cc2cc3c(c(O)c2c(O)c1-c1c(OC)cc2cc4c(c(O)c2c1O)C(=O)O[C@H](C)C4)C(=O)O[C@H](C)C3` [Vioxanthin], the IC50 in data set [4] (A549, 72 h) was 77.1 µM; in data set [2] (ATCC25922, 20 h), > 200 µM; in data set [3] (Staphylococcus aureus, ATCC25923, 20 h), 3 µM; in data set [1] (ATCC10231, 20 h), 36.4 µM; in data set [6] (setting [16]), 1.6 µM. For the same compound, the “liver and kidney damage in animals” value in data set [8] was “known to cause liver and kidney damage in animals”.

For `COC1=C(C2=C(OC)C(=O)c3cc4c(c(O)c3C2=O)C(=O)OC(C)C4)C(=O)c2c(cc3c(c2O)C(=O)OC(C)C3)C1=O` (stereo not shown) [Xanthomegnin], the 50% inhibitory concentration (IC50) in data set [4] (A549, 72 h) was 65.6 µM; in data set [2] (setting [10]), > 200 µM; in data set [3] (setting [14]), 19.2 µM; in data set [1] (setting [9]), 18.6 µM; in data set [6] (setting [15]), 35.3 µM. For the same compound, the “liver and kidney damage in animals” value in data set [8] is “known to cause liver and kidney damage in animals”.

As for Penilumamide E, the “cytotoxicity activity” value in data set [5] is reported as “weak cytotoxicity activity”.
